Source: patent US11814372B2, “Agonists of EPHA and their uses” (CASE WESTERN RESERVE UNIVERSITY, priority 2017, dated 2023)

What was measured:
[1] = system: DU145 and PC-3 cell xenografts; details: previously shown, independent of α1-adrenoreceptor; cited from earlier work
[2] = system: MDA-MB-231, A172-A2 and PC3-DAB2IP KD cells; assay: Chemotactic cell migration toward hepatocyte growth factor (HGF); format: cell-based; details: all three cell lines; lesser degree than in the haptotactic assay
PC-3 cells = assay: Cell rounding analysis; format: cell-based, human; details: 50 µM, 30 or 60 min
Text: As we first reported in 2000, EphA2 activation on PC-3 cells by ephrin-A1 induced rapid cell rounding, a phenomenon that is correlated with inhibition of integrin function.

EphA3 = target: T1, EphA3 (Homo sapiens, UniProt P29320); assay: Eph receptor activation in HEK 293 cells overexpressing EphA3; format: cell-based; details: HEK 293 cells overexpressing EphA3, compared to EphA2 and EphA4
T1 construct: expressed in transfected cells; host or cells: HEK 293
T1 sequence (P29320 21-983): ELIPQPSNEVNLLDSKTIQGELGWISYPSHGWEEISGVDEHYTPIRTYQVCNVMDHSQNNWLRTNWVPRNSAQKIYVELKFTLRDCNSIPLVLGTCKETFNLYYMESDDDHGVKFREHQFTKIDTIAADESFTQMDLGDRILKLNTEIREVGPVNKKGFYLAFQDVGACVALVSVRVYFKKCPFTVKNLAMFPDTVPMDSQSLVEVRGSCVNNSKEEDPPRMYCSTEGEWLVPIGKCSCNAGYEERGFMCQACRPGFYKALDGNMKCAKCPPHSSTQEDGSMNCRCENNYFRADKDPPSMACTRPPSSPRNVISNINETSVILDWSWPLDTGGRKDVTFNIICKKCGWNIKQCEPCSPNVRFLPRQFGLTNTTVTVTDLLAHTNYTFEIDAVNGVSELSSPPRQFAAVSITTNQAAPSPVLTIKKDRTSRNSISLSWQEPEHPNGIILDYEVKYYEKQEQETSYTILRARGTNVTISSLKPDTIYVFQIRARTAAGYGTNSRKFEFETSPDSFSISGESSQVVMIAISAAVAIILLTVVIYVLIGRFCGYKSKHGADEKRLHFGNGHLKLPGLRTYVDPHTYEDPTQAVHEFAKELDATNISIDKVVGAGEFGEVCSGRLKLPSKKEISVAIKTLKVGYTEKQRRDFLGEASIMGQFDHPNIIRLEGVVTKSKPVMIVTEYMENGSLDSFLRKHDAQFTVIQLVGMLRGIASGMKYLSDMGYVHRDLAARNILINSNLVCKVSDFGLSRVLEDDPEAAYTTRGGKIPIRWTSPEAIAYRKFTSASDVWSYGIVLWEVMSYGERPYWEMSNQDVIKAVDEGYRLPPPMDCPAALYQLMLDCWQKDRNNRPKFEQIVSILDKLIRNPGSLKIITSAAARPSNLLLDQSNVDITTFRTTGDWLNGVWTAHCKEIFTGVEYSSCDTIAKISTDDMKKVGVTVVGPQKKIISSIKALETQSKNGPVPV
Protocol: Cells were plated in 24-well dishes at a density of 100,000 cells/well and grown for 24 hours prior to stimulation with appropriate compounds and ephrins for the given amounts of time. Compounds were prepared in DMSO at 500 times the final concentrations and 0.2% DMSO was used as vehicle control. Following treatment, cells were lysed directly in SDS Gel Loading Buffer and immunoblotted as described previously. […] For this purpose, HEK 293 cell lines overexpressing EphA1, EphA2, EphA3, EphA4, and EphB3 kinases were utilized.

EphA2 [3] = target: T2, EphA2 (Homo sapiens, UniProt P29317); assay: EphA2 activation in HEK 293-A2 cells (pEphA/B immunoblot); format: cell-based; parameters: expressed in transfected cells; host or cells: HEK 293 (HEK 293-A2)
Protocol: (§1) Cells were plated in 24-well dishes at a density of 100,000 cells/well and grown for 24 hours prior to stimulation with appropriate compounds and ephrins for the given amounts of time. Compounds were prepared in DMSO at 500 times the final concentrations and 0.2% DMSO was used as vehicle control. Following treatment, cells were lysed directly in SDS Gel Loading Buffer and immunoblotted as described previously. Immunoprecipitation and immunofluorescence staining was performed as described. For immunoprecipitation, 300,000 cells/well were plated in 6-well dishes and lysed in modified RIPA Buffer (20 mM Tris-HCl pH 7.4, 20 mM NaF, 150 mM NaCl, 10% glycerol, 0.1% SDS, 0.5% DCA, 2 mM EDTA, 1% Triton X-100) following treatment. Either […] of ephrin-A1-Fc, or […] of EphA2 mouse monoclonal antibody (Clone D7, Millipore) were used, and mouse IgG was used as a negative control for EphA2 IP.
To determine whether the EphA2 agonist activity of doxazosin is cell-context specific, we evaluated the effects of doxazosin on additional cell types. We first utilized HEK 293 cells overexpressing EphA2 (HEK 293-A2) that we described previously. […] Next we tested PC-3 cells that express high levels of endogenous EphA2 receptor. […] We next evaluated the time-course of activation in both MDA-231-A2 and HEK 293-A2 cells upon treatment with a single 50 μM dose of doxazosin.

EphA2 [4] = target: T2, EphA2; assay: EphA2 activation in A172-A2 glioma cells (immunoprecipitation, immunoblot); format: cell-based; parameters: expressed in transfected cells; host or cells: A172 (A172-A2)
Protocol: Cells were plated in 24-well dishes at a density of 100,000 cells/well and grown for 24 hours prior to stimulation with appropriate compounds and ephrins for the given amounts of time. Compounds were prepared in DMSO at 500 times the final concentrations and 0.2% DMSO was used as vehicle control. Following treatment, cells were lysed directly in SDS Gel Loading Buffer and immunoblotted as described previously. […] For immunoprecipitation, 300,000 cells/well were plated in 6-well dishes and lysed in modified RIPA Buffer (20 mM Tris-HCl pH 7.4, 20 mM NaF, 150 mM NaCl, 10% glycerol, 0.1% SDS, 0.5% DCA, 2 mM EDTA, 1% Triton X-100) following treatment. Either 10 ag of ephrin-A1-Fc, or 4 mg of EphA2 mouse monoclonal antibody (Clone D7, Millipore) were used, and mouse IgG was used as a negative control for EphA2 IP. […] We first tested this by utilizing the A172 glioma cells engineered to overexpress EphA2 receptor (A172-A2).

EphA2 [5] = target: T2, EphA2; assay: Internalization of endogenous EphA2 in parental MDA-MB-231 cells (immunofluorescence); format: cell-based; details: two hours, 50 μM
Protocol: as §1
Similar to other receptor tyrosine kinases, activation of the EphA2 receptor by its ligand, ephrin-A1, results in receptor internalization and eventual degradation. […] This was first performed using the U373 glioma cell line engineered to overexpress EphA2.

[6] = system: MDA-MB-231 breast cancer cells; assay: Haptotactic cell migration toward fibronectin (modified Boyden chamber); format: cell-based; details: MDA-MB-231 cells, 4 hours
Text: (§2) One of the well-established functions of Eph receptors is the ligand-dependent repulsive guidance of cell migration. As a ligand-mimicking agonist for EphA2, doxazosin is expected to activate EphA2 on tumor cells and repulse migrating tumor cells in vitro. To test this possibility, we first investigated the effects of doxazosin on integrin-mediated haptotactic cell migration toward fibronectin in a modified Boyden chamber cell migration assay. […] The inhibitory effects were observed when doxazosin was presented either in the bottom chamber, or in both top and bottom chambers in the Transwell assay system. […] Therefore, doxazosin can recapitulate a key function attributed to its native ligands, i.e., negative regulation of cell migration.

A172-A2 glioma cells = assay: as above; format: cell-based; details: 4 hours
Text: as §2

T2 sequence (P29317 24-976): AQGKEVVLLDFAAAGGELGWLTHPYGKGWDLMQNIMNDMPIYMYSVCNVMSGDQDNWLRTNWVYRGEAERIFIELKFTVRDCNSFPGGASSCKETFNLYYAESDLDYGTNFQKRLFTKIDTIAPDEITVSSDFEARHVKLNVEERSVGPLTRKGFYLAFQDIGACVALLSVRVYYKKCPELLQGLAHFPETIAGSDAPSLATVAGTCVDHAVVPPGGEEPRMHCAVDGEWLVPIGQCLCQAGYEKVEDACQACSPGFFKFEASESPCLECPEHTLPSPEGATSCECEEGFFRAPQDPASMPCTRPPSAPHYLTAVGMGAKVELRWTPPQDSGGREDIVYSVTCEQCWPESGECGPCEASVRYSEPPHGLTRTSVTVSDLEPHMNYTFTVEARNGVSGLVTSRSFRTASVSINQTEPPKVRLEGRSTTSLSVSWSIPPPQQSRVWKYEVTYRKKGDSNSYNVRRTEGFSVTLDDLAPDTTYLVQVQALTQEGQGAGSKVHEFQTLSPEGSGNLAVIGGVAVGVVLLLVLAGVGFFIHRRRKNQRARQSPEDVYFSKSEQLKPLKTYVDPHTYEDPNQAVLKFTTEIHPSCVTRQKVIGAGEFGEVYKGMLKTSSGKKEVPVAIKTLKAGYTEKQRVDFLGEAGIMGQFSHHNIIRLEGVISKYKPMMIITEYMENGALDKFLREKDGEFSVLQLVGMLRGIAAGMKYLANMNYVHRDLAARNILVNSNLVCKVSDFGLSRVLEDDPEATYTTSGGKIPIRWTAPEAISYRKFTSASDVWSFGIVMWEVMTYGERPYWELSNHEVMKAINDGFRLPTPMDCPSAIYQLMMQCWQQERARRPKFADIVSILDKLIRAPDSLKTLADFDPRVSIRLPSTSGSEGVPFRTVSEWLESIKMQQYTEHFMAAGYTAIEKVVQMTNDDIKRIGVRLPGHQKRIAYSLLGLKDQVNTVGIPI

In the case of `COc1cc2nc(N3CCN(C(=O)C4COc5ccccc5O4)CC3)nc(N)c2cc1OC` (stereo not drawn) [doxazosin], the “subcutaneous growth of DU145 and PC-3 cell xenografts” value [1] is listed as “moderately decrease subcutaneous growth”, the “chemotactic cell migration toward HGF” value [2] is listed as “dose-dependent inhibition” and the cell rounding (PC-3 cells) is listed as “caused rounding of PC-3 cells”. The “EphA3 activation, Eph receptor panel” value (EphA3) was “weak”, the “concentration at which significant EphA2 activation starts” value (EphA2 [3]; HEK 293-A2 cells, 30 minutes) was 25 µM and the “time at which EphA2 activation became evident” value (EphA2 [3]; HEK 293-A2 cells, single 50 μM dose) was 10 min. For the same molecule, the “EphA2 kinase activation, Eph receptor panel” value (EphA2 [3]; HEK 293 cells overexpressing EphA2, 60 minutes) was “activated both EphA2 and EphA4 kinases”, the “concentration at which EphA2 activation starts” value (EphA2 [4]; A172-A2 glioma cells, 90 minutes) was “around 25 μM” and the “EphA2 level after treatment” value (EphA2 [4]; A172 cells) was “degradation of EphA2”. For the same molecule, the “internalization of endogenous EphA2” value (EphA2 [5]) was “significant internalization of the endogenous EphA2”, the “haptotactic cell migration toward fibronectin” value [6] was “dose-dependent inhibition of cell migration” and the “haptotactic cell migration toward fibronectin” value (A172-A2 glioma cells) was “dose-dependent inhibition of cell migration”.
